Laboratory results from the NIST ThermoML archive (doi:10.1021/je800069z).
± gives the expanded uncertainty stated by the source.

Settings: Ring tensiometer

SMILES | surface tension liquid-gas (293.15 K) [mN/m] | surface tension liquid-gas (303.15 K) [mN/m] | surface tension liquid-gas (313.15 K) [mN/m] | surface tension liquid-gas (323.15 K) [mN/m] | surface tension liquid-gas (333.15 K) [mN/m] | surface tension liquid-gas (343.15 K) [mN/m] | surface tension liquid-gas (353.15 K) [mN/m]
CCCCCCCCCCn1cc[n+](C)c1.O=S(=O)([N-]S(=O)(=O)C(F)(F)F)C(F)(F)F | 32.12 ± 0.6 | 31.34 ± 0.59 | 30.7 ± 0.58 | 30.1 ± 0.57 | 29.5 ± 0.56 | 28.68 ± 0.55 | –
CCCC[n+]1ccn(C)c1.O=S(=O)([N-]S(=O)(=O)C(F)(F)F)C(F)(F)F | 33.6 ± 0.63 | 33.09 ± 0.62 | 32.5 ± 0.61 | 31.92 ± 0.6 | 31.35 ± 0.59 | 30.9 ± 0.58 | –
CCCCCn1cc[n+](C)c1.O=S(=O)([N-]S(=O)(=O)C(F)(F)F)C(F)(F)F | 32.9 ± 0.62 | 32.41 ± 0.61 | 31.83 ± 0.6 | 31.27 ± 0.59 | 30.77 ± 0.58 | 30.31 ± 0.58 | –
CCCCCCCn1cc[n+](C)c1.O=S(=O)([N-]S(=O)(=O)C(F)(F)F)C(F)(F)F | 32 ± 0.6 | 31.36 ± 0.59 | 30.66 ± 0.58 | 30.02 ± 0.57 | 29.5 ± 0.56 | 28.95 ± 0.55 | 28.29 ± 0.54
CCCCCC[n+]1ccn(C)c1.O=S(=O)([N-]S(=O)(=O)C(F)(F)F)C(F)(F)F | 32.31 ± 0.61 | 31.76 ± 0.6 | 31.2 ± 0.59 | 30.6 ± 0.58 | 30.16 ± 0.57 | 29.62 ± 0.56 | –
CCCCCCCCn1cc[n+](C)c1.O=S(=O)([N-]S(=O)(=O)C(F)(F)F)C(F)(F)F | 31.93 ± 0.6 | 31.3 ± 0.59 | 30.57 ± 0.58 | 29.98 ± 0.57 | 29.4 ± 0.56 | 28.86 ± 0.55 | –
CCCn1cc[n+](C)c1.O=S(=O)([N-]S(=O)(=O)C(F)(F)F)C(F)(F)F | 34.87 ± 0.65 | 34.22 ± 0.64 | 33.73 ± 0.63 | 33.31 ± 0.62 | 32.79 ± 0.61 | 32.18 ± 0.6 | –
CCn1cc[n+](C)c1.O=S(=O)([N-]S(=O)(=O)C(F)(F)F)C(F)(F)F | 36.94 ± 0.68 | 36.43 ± 0.67 | 35.92 ± 0.66 | 35.51 ± 0.66 | 34.96 ± 0.65 | 34.57 ± 0.64 | –
